Data: US20250034216A1, “STEREOSELECTIVE COVALENT LIGANDS FOR ONCOGENIC AND IMMUNOLOGICAL PROTEINS” (The Scripps Research Institute, priority 2021, published 2025)

What was measured:
Assay in all cases: IA-DTB cysteine engagement
Assay type in all cases: binding
Conditions in all cases: 22Rv1 cells, 20 μM probe, 1 h, relative to DMSO
GCN1_C1095 = target: T1, GCN1_C1095 (Homo sapiens, UniProt Q92616)
T1 construct: endogenous in cells; host or cells: 22Rv1
Method in brief: (§1)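 First, cells are exposed to electrophilic probes in situ. Next, lysates are labeled with IA-DTB (1 h, ambient temperature), reduced, alkylated and trypsin-digested. Then, IA-DTB peptides are enriched on streptavidin, TMT-labeled and analyzed, with ratios taken against DMSO channels.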

NSD2_C1018 = target: T2, NSD2_C1018 (Homo sapiens, UniProt O96028)
T2 construct: endogenous in cells; host or cells: 22Rv1
T2 sequence (O96028 1-1365): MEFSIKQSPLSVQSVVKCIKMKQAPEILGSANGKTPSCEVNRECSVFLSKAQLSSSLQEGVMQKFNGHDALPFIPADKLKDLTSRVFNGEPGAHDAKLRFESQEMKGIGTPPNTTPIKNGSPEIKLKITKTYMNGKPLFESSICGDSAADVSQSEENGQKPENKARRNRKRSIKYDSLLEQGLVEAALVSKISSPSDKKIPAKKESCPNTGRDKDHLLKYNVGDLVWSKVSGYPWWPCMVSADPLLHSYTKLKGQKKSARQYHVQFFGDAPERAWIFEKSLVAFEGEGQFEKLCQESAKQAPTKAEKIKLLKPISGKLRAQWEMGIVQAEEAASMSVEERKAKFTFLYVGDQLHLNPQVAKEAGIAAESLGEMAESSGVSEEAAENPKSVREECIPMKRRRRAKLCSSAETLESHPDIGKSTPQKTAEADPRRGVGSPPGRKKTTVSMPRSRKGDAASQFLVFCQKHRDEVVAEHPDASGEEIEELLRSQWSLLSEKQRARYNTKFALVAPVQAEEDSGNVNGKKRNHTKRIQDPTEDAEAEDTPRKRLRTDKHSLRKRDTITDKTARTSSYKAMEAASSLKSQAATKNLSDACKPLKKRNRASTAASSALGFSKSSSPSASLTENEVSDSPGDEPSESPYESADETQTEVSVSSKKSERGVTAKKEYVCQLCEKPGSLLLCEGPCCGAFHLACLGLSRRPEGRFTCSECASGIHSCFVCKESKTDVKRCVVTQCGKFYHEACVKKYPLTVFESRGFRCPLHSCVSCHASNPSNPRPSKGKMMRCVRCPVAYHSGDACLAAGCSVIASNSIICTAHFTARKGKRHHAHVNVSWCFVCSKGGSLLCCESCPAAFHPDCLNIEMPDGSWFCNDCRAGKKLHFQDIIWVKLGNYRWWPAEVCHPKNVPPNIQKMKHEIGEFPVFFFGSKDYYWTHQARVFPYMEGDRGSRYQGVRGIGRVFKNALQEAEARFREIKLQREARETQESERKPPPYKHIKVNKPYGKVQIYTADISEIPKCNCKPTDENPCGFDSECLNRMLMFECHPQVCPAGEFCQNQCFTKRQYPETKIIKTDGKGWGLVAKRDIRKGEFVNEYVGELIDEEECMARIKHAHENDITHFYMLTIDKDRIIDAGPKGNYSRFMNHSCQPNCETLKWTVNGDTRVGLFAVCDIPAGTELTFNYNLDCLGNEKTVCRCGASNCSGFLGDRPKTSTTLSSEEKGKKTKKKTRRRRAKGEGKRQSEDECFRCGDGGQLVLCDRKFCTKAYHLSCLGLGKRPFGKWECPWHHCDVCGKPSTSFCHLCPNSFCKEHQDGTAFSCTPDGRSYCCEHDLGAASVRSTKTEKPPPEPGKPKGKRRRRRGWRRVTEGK
Method in brief: as §1

TRPM4_C759 = target: T3, TRPM4_C759 (Homo sapiens, UniProt Q8TD43)
T3 construct: endogenous in cells; host or cells: 22Rv1
T3 sequence (Q8TD43 whole entry): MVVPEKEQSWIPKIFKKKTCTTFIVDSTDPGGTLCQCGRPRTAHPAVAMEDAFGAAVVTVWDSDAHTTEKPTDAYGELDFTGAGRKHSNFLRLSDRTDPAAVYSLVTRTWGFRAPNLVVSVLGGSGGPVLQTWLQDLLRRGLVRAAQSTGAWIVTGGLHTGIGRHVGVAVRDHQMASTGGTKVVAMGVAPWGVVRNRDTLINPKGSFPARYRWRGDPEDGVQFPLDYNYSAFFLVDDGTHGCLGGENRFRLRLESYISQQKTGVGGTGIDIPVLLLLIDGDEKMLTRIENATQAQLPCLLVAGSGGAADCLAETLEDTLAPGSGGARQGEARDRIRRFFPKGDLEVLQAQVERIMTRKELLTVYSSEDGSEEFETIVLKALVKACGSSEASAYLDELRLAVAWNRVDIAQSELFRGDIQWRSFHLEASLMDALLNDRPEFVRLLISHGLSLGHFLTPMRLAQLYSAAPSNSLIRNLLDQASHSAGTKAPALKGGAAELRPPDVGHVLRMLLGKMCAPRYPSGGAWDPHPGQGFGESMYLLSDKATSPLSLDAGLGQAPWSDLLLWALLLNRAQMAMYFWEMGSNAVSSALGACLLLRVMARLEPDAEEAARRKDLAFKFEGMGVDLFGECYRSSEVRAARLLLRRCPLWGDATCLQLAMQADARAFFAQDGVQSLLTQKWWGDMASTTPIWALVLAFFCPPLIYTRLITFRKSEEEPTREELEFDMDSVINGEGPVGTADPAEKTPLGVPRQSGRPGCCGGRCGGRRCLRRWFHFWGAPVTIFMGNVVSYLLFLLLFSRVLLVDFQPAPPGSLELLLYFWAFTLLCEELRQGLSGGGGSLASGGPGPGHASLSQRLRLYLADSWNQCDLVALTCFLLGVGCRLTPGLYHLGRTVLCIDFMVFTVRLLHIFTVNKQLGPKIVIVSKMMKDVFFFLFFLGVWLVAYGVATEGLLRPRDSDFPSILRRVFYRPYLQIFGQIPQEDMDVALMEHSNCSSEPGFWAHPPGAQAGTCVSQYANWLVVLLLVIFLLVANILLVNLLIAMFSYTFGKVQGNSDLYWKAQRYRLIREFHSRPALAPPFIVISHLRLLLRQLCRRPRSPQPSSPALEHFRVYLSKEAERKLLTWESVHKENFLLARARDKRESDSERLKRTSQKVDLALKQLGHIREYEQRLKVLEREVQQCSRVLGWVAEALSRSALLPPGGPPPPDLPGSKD
Method in brief: as §1

PRRT3_C720 = target: T4, PRRT3_C720 (Homo sapiens, UniProt Q5FWE3)
T4 construct: endogenous in cells; host or cells: 22Rv1
T4 sequence (Q5FWE3 28-981): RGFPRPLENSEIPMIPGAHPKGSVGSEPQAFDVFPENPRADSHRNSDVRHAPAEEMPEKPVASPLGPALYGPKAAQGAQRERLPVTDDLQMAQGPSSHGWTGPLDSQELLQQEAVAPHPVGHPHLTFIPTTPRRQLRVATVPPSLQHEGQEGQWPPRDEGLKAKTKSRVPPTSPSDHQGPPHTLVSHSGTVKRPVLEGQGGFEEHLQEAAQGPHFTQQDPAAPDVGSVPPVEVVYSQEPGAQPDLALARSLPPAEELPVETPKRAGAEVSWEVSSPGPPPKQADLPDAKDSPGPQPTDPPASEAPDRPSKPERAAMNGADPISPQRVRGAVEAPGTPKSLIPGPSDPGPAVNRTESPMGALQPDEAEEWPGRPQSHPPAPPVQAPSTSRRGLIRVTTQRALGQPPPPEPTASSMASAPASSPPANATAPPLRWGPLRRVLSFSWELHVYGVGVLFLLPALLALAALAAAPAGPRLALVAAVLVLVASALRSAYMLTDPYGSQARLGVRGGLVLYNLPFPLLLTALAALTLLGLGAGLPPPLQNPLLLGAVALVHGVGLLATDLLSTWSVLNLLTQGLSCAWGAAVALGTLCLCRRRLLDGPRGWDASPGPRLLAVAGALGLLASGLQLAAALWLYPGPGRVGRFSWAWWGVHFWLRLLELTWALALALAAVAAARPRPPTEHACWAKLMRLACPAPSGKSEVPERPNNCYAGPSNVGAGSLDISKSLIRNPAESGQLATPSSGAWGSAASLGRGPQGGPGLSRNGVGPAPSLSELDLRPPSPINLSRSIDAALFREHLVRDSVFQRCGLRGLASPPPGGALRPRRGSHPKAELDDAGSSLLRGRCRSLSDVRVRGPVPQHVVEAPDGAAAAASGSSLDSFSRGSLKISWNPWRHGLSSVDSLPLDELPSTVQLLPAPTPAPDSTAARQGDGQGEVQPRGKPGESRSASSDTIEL
Method in brief: as §1

T1 sequence (Q92616 whole entry): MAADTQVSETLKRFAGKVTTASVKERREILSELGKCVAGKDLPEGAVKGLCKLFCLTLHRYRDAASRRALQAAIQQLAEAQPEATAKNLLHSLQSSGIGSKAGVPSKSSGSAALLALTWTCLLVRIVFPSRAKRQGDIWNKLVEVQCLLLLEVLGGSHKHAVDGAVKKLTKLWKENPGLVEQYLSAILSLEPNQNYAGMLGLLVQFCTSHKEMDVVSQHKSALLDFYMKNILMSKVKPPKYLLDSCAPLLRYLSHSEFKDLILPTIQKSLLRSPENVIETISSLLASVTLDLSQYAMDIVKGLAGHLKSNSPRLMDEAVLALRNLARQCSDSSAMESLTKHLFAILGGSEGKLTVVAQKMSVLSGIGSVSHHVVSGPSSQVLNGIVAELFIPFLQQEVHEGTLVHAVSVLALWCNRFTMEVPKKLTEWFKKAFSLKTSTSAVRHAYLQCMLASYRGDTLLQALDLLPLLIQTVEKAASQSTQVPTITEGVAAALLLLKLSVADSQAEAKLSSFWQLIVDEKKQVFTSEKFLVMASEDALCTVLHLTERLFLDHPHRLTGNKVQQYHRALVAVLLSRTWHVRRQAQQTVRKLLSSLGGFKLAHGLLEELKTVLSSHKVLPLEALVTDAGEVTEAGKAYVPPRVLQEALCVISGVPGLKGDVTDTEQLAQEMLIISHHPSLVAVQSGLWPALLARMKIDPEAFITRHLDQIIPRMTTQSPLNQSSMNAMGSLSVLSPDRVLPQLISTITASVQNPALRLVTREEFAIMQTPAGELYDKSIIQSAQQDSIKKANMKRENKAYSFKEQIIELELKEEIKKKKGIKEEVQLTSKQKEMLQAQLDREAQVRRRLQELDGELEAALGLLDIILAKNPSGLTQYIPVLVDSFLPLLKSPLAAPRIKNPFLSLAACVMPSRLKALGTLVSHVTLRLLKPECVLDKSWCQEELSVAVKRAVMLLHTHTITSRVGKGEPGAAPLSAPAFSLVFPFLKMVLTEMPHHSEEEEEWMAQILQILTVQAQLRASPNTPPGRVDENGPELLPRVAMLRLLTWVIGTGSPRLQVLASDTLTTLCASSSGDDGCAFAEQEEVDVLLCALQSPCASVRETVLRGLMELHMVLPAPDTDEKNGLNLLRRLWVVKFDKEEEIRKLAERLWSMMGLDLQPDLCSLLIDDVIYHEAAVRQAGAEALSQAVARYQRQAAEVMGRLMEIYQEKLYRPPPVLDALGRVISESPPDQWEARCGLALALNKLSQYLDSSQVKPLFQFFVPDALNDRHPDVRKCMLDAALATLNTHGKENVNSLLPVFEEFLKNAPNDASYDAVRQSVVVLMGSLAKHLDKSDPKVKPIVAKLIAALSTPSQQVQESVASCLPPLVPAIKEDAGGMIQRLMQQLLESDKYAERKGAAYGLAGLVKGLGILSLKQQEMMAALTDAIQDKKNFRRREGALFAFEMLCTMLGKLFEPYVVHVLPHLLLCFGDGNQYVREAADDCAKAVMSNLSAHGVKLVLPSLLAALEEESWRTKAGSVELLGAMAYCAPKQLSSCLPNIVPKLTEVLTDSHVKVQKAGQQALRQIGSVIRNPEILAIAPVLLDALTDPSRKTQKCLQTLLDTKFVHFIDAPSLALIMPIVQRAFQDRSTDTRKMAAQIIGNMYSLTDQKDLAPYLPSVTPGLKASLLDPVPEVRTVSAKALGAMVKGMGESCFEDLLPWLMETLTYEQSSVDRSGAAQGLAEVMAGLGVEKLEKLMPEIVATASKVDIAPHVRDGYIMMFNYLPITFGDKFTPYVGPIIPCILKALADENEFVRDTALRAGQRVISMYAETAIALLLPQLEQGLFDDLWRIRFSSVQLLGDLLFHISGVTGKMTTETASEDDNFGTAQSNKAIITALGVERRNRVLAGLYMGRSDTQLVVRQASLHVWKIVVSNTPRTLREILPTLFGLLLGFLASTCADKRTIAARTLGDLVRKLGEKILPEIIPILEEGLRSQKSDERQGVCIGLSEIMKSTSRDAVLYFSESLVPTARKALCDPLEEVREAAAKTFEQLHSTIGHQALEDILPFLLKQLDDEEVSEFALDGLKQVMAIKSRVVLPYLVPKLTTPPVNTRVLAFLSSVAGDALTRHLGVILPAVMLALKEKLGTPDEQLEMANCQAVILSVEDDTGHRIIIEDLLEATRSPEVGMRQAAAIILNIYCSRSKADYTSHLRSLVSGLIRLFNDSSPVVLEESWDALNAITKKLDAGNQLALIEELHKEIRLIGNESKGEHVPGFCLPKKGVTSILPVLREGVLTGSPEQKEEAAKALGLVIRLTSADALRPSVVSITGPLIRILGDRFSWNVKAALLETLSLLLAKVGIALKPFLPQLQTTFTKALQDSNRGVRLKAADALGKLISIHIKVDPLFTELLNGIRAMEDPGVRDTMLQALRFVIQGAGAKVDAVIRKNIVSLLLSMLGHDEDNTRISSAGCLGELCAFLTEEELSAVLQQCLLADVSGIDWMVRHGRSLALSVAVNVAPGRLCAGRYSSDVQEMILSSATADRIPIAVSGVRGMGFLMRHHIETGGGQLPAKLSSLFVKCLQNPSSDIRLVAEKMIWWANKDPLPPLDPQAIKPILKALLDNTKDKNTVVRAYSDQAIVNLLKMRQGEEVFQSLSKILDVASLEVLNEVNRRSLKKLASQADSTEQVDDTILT

| Compound | % engagement GCN1_C1095 (GCN1_C1095) [%] | % engagement NSD2_C1018 (NSD2_C1018) [%] | % engagement TRPM4_C759 (TRPM4_C759) [%] | % engagement PRRT3_C720 (PRRT3_C720) [%] |
| --- | --- | --- | --- | --- |
| C=CC(=O)N1C[C@H](c2ccc(Br)cc2)[C@H]1C(=O)Nc1cccc2cccnc12 [MY-3A, (2S,3S)-1-acryloyl-3-(4-bromophenyl)-N-(quinolin-8-yl)azetidine-2-carboxamide] | 5 | 36.75 | 50.25 | 45.5 |
| C=CC(=O)N1C[C@H](c2ccc(Br)cc2)[C@@H]1C(=O)Nc1cccc2cccnc12 [MY-1B, (2R,3S)-1-acryloyl-3-(4-bromophenyl)-N-(quinolin-8-yl)azetidine-2-carboxamide] | 84 | 43.75 | 48.75 | 53 |
| C=CC(=O)N1C[C@H](c2ccc(Br)cc2)[C@H]1C(=O)Nc1cccc2cccnc12 [MY-3B, (2S,3S)-1-acryloyl-3-(4-bromophenyl)-N-(quinolin-8-yl)azetidine-2-carboxamide] | −7.5 | 67 | 76.25 | 71 |
| C=CC(=O)N1C[C@@H](c2ccc(Br)cc2)[C@H]1C(=O)Nc1cccc2cccnc12 [MY-1A, (2S,3R)-1-acryloyl-3-(4-bromophenyl)-N-(quinolin-8-yl)azetidine-2-carboxamide] | 18.5 | 16.5 | 69.75 | 47 |
